Measured values taken from patent US20200131156A1, “ARYLSULFONYLPYROLECARBOXAMIDE DERIVATIVES AS Kv3 POTASSIUM CHANNEL ACTIVATORS” (H. Lundbeck A/S, priority 2018, published 2020).

Target: T1, hKv3.1b (Homo sapiens, UniProt P48547)
T1 construct: expressed in transfected cells
T1 sequence (P48547 1-585 isoform P48547-2): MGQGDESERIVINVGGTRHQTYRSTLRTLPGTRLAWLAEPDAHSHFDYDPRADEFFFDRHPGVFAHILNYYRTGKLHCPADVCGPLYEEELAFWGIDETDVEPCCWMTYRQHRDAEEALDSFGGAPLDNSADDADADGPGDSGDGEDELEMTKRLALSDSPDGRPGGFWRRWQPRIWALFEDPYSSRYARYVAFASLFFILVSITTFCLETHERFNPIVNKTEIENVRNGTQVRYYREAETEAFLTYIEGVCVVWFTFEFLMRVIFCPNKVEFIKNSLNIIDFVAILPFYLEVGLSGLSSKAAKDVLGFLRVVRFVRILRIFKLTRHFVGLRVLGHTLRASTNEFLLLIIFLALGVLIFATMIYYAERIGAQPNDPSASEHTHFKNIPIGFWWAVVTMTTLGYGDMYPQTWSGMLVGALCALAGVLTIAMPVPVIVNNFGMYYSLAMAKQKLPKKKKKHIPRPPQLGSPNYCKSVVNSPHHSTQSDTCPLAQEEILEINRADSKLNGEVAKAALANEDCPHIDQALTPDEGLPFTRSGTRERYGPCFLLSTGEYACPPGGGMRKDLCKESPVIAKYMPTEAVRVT
Experiment: Automated patch clamp (QPatch-16x) on HEK-293 cells stably expressing hKv3.1b
Assay type: cell-based
Conditions: for hKv3.1 (Qpatch) ECΔ30% increase: concentration increasing current by 30% at the −10 mV step; for hKv3.1 (Qpatch) ECΔ30% increase / hKv3.1 (Qpatch) ECΔ5 mV: automated patch clamp; for ECdelta5 mV: concentration needed to shift the activation threshold 5 mV; for hKv3.1 (Qpatch) ECΔ5 mV: concentration that shifts activation threshold by 5 mV in hyperpolarized direction; for Threshold Shift: maximum absolute hyperpolarizing shift of activation threshold at tested concentrations 0.37-30 μM
Summary of the method: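 Whole-cell automated patch clamp, extracellular pH 7.4, 4 mM Na2ATP intracellular; holding −80 mV, 200 ms steps −70 to +10 mV. Five ascending concentrations (0.37–30 μM) per cell, ~3 min each, 0.33% DMSO vehicle. Activation threshold (5% of vehicle peak at 10 mV) shift fitted sigmoidally; ECdelta5 mV read from curve.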

hKv3.1 (Qpatch) ECΔ30% increase [µM]	ECdelta5 mV [nM]	hKv3.1 (Qpatch) ECΔ5 mV [µM]	Threshold Shift [mV]	SMILES
2.9	2800	2.7	17	Cc1ccc(S(=O)(=O)n2ccc(C(=O)NCc3ncco3)c2)cc1 [Compound 86, 1-(4-methylbenzene-1-sulfonyl)-N-[(1,3-oxazol-2-yl)methyl]-1H-pyrrole-3-carboxamide]
1.6	1300	1.2	32	Cc1cnc(CNC(=O)c2ccn(S(=O)(=O)c3ccc(F)cc3C)c2)cn1 [Compound 90, 1-(4-fluoro-2-methylbenzene-1-sulfonyl)-N-[(5-methylpyrazin-2-yl)methyl]-1H-pyrrole-3-carboxamide]
